Measurements: patent US20220362153A1, “COMPOSITIONS AND METHODS FOR PULMONARY SURFACTANT-BIOMIMETIC NANOPARTICLES” (priority 2019, published 2022)

Tested on: rgVN04 H5N1 virus
Set-up: species or system mice
Conditions: mouse, in vivo

cholera toxin [CT]
early protection by VN04 H5N1 vaccine combined with adjuvant: did not provide any early protection
